Measurements as given in patent US4062944A, “Mixture of antibiotics produced by new species of micromonospora” (Pfizer Inc., priority 1976, dated 1977).
Values after ≈ are worked out from the molar mass of the structure shown. Where two headings read alike, the source gives them in different places.

Assays:
M. tuber. H37Rv = experiment: Minimal inhibitory concentration, nutrient broth tube dilution, M. tuberculosis; type: cell-based; conditions: Mycobacterium tuberculosis
Protocol: (§1) These tests were run by preparing tubes of nutrient broth with gradually increasing concentrations of the pure antibiotic and then seeding the broths with the particular organism specified. […] The tests were conducted under standardized conditions as described in Proc. Soc. Exp. Biol. & Med. 122, ll07 (1966). Tables II and III illustrate the in vivo activity of these new antibiotics in experimentally infected mice.

Streptococcus pyogenes = experiment: Minimal inhibitory concentration, nutrient broth tube dilution, Streptococcus pyogenes; type: cell-based
Protocol: as §1

Staphylococcus aureus = experiment: Minimal inhibitory concentration, nutrient broth tube dilution, Staphylococcus aureus; type: cell-based
Protocol: as §1

[1] = test system: S. aureus (multi-resistant); experiment: Minimal inhibitory concentration, nutrient broth tube dilution, S. aureus (multi-resistant); type: cell-based; conditions: Staphylococcus aureus
Protocol: as §1

Diplococci = experiment: In vivo activity in experimentally infected mice, Diplococci (PD50); conditions: Mus musculus, oral, read-out: PD50 (dose that provides 50% protection)
Protocol: as §1
(§2) *Dose that provides 50% protection?

Streptococci = experiment: In vivo activity in experimentally infected mice, Streptococci (PD50); conditions: Mus musculus, oral, read-out: PD50 (dose that provides 50% protection)
Protocol: as §1, §2

Staphylococci = experiment: In vivo activity in experimentally infected mice, Staphylococci (PD50); conditions: Mus musculus, read-out: PD50 (dose that provides 50% protection)
Protocol: as §1, §2

M. tuberculosis = M. tuberculosis infection in mice, survival; type: in vivo; conditions: evaluated at 53 days post challenge; for Percent Survival: control 20; for Average Survival Time: control 37.7
Protocol: as §1
M. tuberculosis Infection in Mice
*Evaluated at 53 days post challenge

[2] = Antibiotic properties of hexahydro derivatives compared with parent compounds; conditions: compared with the parent compound

Molecule	MIC (M. tuber. H37Rv) [ng/mL]	MIC (Streptococcus pyogenes) [ng/mL]	MIC (Staphylococcus aureus) [ng/mL]	MIC [1] [ng/mL]	ED50 (Diplococci) [mg/kg]	ED50 (Streptococci) [mg/kg]	ED50 (Staphylococci; oral) [mg/kg]	ED50 (Staphylococci; sc, subcutaneous) [mg/kg]	Percent Survival (M. tuberculosis; daily dose 0.5 mg) [%]	Average Survival Time (M. tuberculosis; daily dose 0.5 mg) [days]	Percent Survival (M. tuberculosis; daily dose 5.0 mg) [%]	Average Survival Time (M. tuberculosis; daily dose 5.0 mg) [days]	antibiotic properties / antibiotic activity [2]
COC1C=COC2(C)Oc3c(C)c(O)c4c(O)c(c(SC)c(O)c4c3C2=O)NC(=O)C(C)=CC=CC(C)C(O)C(C)C(O)C(C)C(OC(C)=O)C1C (stereo not shown) [3-methylthiorifamycin SV]	15 (≈ 20.2 nM)	1.9 (≈ 2.55 nM)	1.9 (≈ 2.55 nM)	1.9 to 3.9 (≈ 2.55 to 5.24 nM)	8	0.22	1.1	0.65	70	44.3	100	53.0	
COC1C=COC2(C)Oc3c(C)c(O)c4c(c3C2=O)C(=O)C(SC)=C(NC(=O)C(C)=CC=CC(C)C(O)C(C)C(O)C(C)C(OC(C)=O)C1C)C4=O (stereo not shown) [3-methylthiorifamycin S]	6 (≈ 8.09 nM)	0.9 (≈ 1.21 nM)	0.4 (≈ 0.539 nM)	1.2 to 3.9 (≈ 1.62 to 5.26 nM)	> 12.5	0.6	1.4	0.17					
hexahydro derivative of 3-methylthiorifamycin SV													comparable to those of the parent compounds
hexahydro-3-methylthiorifamycin S													comparable to those of the parent compounds
